In US20100298141A1, “SUBSTITUTED PYRIDINE N-OXIDE HERBICIDES” (E. I. DU PONT DE NEMOURS AND COMPANY, priority 2007, published 2010):

Legend:
prickly sida = assay: Test F preemergence test; type: in vivo, Sida spinosa; settings: scale 0 to 100
Summary of the method: (§1)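 Test chemicals were formulated in a non-phytotoxic solvent mixture with surfactant and applied preemergence to planted seeds or postemergence to sugarcane plants. Plants were kept in a greenhouse for 14 to 21 days, then visually evaluated against controls.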

goosegrass = assay: Test F preemergence test; type: in vivo, Eleusine indica; settings: scale 0 to 100
Summary of the method: as §1

broadleaf signalgrass = assay: Test F preemergence test; type: in vivo, Brachiaria platyphylla; settings: scale 0 to 100
Summary of the method: as §1

bermudagrass = assay: Test F preemergence test; type: in vivo, Cynodon dactylon; settings: scale 0 to 100
Summary of the method: as §1

Surinam grass = assay: Test F preemergence test; type: in vivo, Brachiaria decumbens; settings: scale 0 to 100
Summary of the method: as §1

pitted morningglory = assay: Test F preemergence test; type: in vivo, Ipomoea lacunosa; settings: scale 0 to 100
Summary of the method: as §1

naked crabgrass = assay: Test F preemergence test; type: in vivo, Digitaria nuda; settings: scale 0 to 100
Summary of the method: as §1

Italian ryegrass = assay: Test F preemergence test; type: in vivo, Lolium multiflorum; settings: scale 0 to 100
Summary of the method: as §1

common ragweed = assay: Test F preemergence test; type: in vivo, Ambrosia elation; settings: scale 0 to 100
Summary of the method: as §1

johnsongrass = assay: Test F preemergence test; type: in vivo, Sorghum halepense; settings: scale 0 to 100
Summary of the method: as §1

itchgrass = assay: Test F preemergence test; type: in vivo, Rottboellia cochinchinensis; settings: scale 0 to 100
Summary of the method: as §1

common purslane = assay: Test F preemergence test; type: in vivo, Portulaca oleracea; settings: scale 0 to 100
Summary of the method: as §1

Russian thistle = assay: Test C pre-/postemergence test; type: in vivo, Salsola kali; settings: Preemergence
Excerpt: Seeds of plant species selected from blackgrass (Alopecurus myosuroides), downy brome (Bromus tectorum), green foxtail (Setaria viridis), Italian ryegrass (Lolium multiflorum), wheat (Triticum aestivum), wild oat (Avena fatua), catchweed bedstraw (Galium aparine), Russian thistle (Salsola kali), […] (Cynodon dactylon), Surinam grass (Brachiaria decumbens), cocklebur (Xanthium strumarium), corn (Zea mays), crabgrass (Digitaria sanguinalis), woolly cupgrass (Eriochloa villosa), giant foxtail (Setaria faberii), Goosegrass (Eleusin indica), johnsongrass (Sorghum halepense), kochia (Kochia scoparia), lambsquarters (Chenopodium album), morningglory (Ipomoea coccinea), eastern black nightshade (Solanum ptycanthum), yellow nutsedge (Cyperus esculentus), pigweed (Amaranthus retroflexus), common ragweed (Ambrosia elation), soybean (Glycine max), common (oilseed) sunflower (Helianthus annuus), and velvetleaf (Abutilon theophrasti) were planted and treated preemergence with test chemicals formulated in a non-phytotoxic solvent mixture which included a surfactant. At the same time, plants selected from these crop and weed species and also winter barley (Hordeum vulgare), canarygrass (Phalaris minor), and chickweed (Stellaria media) were treated with postemergence applications of some of the test chemicals formulated in the same manner. Plants ranged in height from 2 to 18 cm (1- to 4-leaf stage) for postemergence treatments. […] At time of treatment, test pots were flooded to 3 cm above the soil surface, treated by application of test compounds directly to the paddy water, and then maintained at that water depth for the duration of the test. […] A dash (-) response means no test result.

purple nutsedge = assay: Test F preemergence test; type: in vivo, Cyperus rotundus; settings: scale 0 to 100
Summary of the method: as §1

southern sandbur = assay: Test F preemergence test; type: in vivo, Cenchrus echinatus; settings: scale 0 to 100
Summary of the method: as §1

field bindweed = assay: Test F preemergence test; type: in vivo, Convolvulus arvensis; settings: scale 0 to 100
Summary of the method: as §1

guineagrass = assay: Test F preemergence test; type: in vivo, Panicum maximum; settings: scale 0 to 100
Summary of the method: as §1

Cc1cc[n+]([O-])c([S+]([O-])Cc2c(C(F)(F)F)nn(C)c2Cl)c1 (racemic) [Compound 20]
Plant response rating, Prickly Sida (prickly sida; 8 g ai/ha, preemergence): 0 | Prickly Sida plant response rating (prickly sida; 62 g ai/ha, Preemergence): 60 | Plant response rating, Prickly Sida (prickly sida; Preemergence, 16 g ai/ha): 0 | Plant response rating, Prickly Sida (prickly sida; Preemergence, 31 g ai/ha): 20 | Plant response rating, Goosegrass (goosegrass; 8 g ai/ha, preemergence): 0 | Goosegrass plant response rating (goosegrass; 62 g ai/ha, Preemergence): 75 | Plant response rating, Goosegrass (goosegrass; Preemergence, 16 g ai/ha): 15 | Plant response rating, Goosegrass (goosegrass; Preemergence, 31 g ai/ha): 60 | Plant response rating, Signalgrass (broadleaf signalgrass; 8 g ai/ha, preemergence): 50 | Plant response rating, Signalgrass (broadleaf signalgrass; 16 g ai/ha, preemergence): 35 | Signalgrass plant response rating (broadleaf signalgrass; 62 g ai/ha, Preemergence): 75 | Plant response rating, Signalgrass (broadleaf signalgrass; Preemergence, 31 g ai/ha): 65 | Plant response rating, Bermudagrass (bermudagrass; 8 g ai/ha, preemergence): 15 | Bermudagrass plant response rating (bermudagrass; 62 g ai/ha, Preemergence): 50 | Plant response rating, Bermudagrass (bermudagrass; Preemergence, 16 g ai/ha): 20 | Plant response rating, Bermudagrass (bermudagrass; Preemergence, 31 g ai/ha): 50 | Plant response rating, Surinam Grass (Surinam grass; 8 g ai/ha, preemergence): 0 | Plant response rating, Surinam Grass (Surinam grass; 16 g ai/ha, preemergence): 0 | Surinam Grass plant response rating (Surinam grass; 62 g ai/ha, Preemergence): 65 | Plant response rating, Surinam Grass (Surinam grass; Preemergence, 31 g ai/ha): 60 | Plant response rating, Morningglory (pitted morningglory; 8 g ai/ha, preemergence): 0 | Morningglory plant response rating (pitted morningglory; 62 g ai/ha, Preemergence): 40 | Plant response rating, Morningglory (pitted morningglory; Preemergence, 16 g ai/ha): 0 | Plant response rating, Morningglory (pitted morningglory; Preemergence, 31 g ai/ha): 15 | Plant response rating, Crabgrass, Naked (naked crabgrass; 8 g ai/ha, preemergence): 75 | Crabgrass, Naked plant response rating (naked crabgrass; 62 g ai/ha, Preemergence): 95 | Plant response rating, Crabgrass, Naked (naked crabgrass; Preemergence, 16 g ai/ha): 75 | Plant response rating, Crabgrass, Naked (naked crabgrass; Preemergence, 31 g ai/ha): 80 | Plant response rating, Ryegrass, Italian (Italian ryegrass; 8 g ai/ha, preemergence): 0 | Ryegrass, Italian plant response rating (Italian ryegrass; 62 g ai/ha, Preemergence): 65 | Plant response rating, Ryegrass, Italian (Italian ryegrass; Preemergence, 16 g ai/ha): 10 | Plant response rating, Ryegrass, Italian (Italian ryegrass; Preemergence, 31 g ai/ha): 35 | Plant response rating, Ragweed (common ragweed; 8 g ai/ha, preemergence): 0 | Ragweed plant response rating (common ragweed; 62 g ai/ha, Preemergence): 25 | Plant response rating, Ragweed (common ragweed; Preemergence, 16 g ai/ha): 0 | Plant response rating, Ragweed (common ragweed; Preemergence, 31 g ai/ha): 0 | Plant response rating, Johnsongrass (johnsongrass; 8 g ai/ha, preemergence): 0 | Johnsongrass plant response rating (johnsongrass; 62 g ai/ha, Preemergence): 90 | Plant response rating, Johnsongrass (johnsongrass; Preemergence, 16 g ai/ha): 50 | Plant response rating, Johnsongrass (johnsongrass; Preemergence, 31 g ai/ha): 60 | Plant response rating, Itchgrass (itchgrass; 8 g ai/ha, preemergence): 0 | Itchgrass plant response rating (itchgrass; 62 g ai/ha, Preemergence): 70 | Plant response rating, Itchgrass (itchgrass; Preemergence, 16 g ai/ha): 0 | Plant response rating, Itchgrass (itchgrass; Preemergence, 31 g ai/ha): 15 | Plant response rating, Purslane (common purslane; 8 g ai/ha, preemergence): 0 | Purslane plant response rating (common purslane; 62 g ai/ha, Preemergence): 25 | Plant response rating, Purslane (common purslane; Preemergence, 16 g ai/ha): 15 | Plant response rating, Purslane (common purslane; Preemergence, 31 g ai/ha): 15 | Russian Thistle plant response rating (Russian thistle; 62 g ai/ha, scale 0 to 100): 100 | Plant response rating, Russian Thistle (Russian thistle; 31 g ai/ha, scale 0 to 100 (0 no effect, 100 complete control)): 100 | Plant response rating, Purple Nutsedge (purple nutsedge; 8 g ai/ha, preemergence): 0 | Purple Nutsedge plant response rating (purple nutsedge; 62 g ai/ha, Preemergence): 25 | Plant response rating, Purple Nutsedge (purple nutsedge; Preemergence, 16 g ai/ha): 0 | Plant response rating, Purple Nutsedge (purple nutsedge; Preemergence, 31 g ai/ha): 0 | Plant response rating, Sandbur (southern sandbur; 8 g ai/ha, preemergence): 0 | Plant response rating, Sandbur (southern sandbur; 16 g ai/ha, preemergence): 0 | Sandbur plant response rating (southern sandbur; 62 g ai/ha, Preemergence): 75 | Plant response rating, Sandbur (southern sandbur; Preemergence, 31 g ai/ha): 60 | Plant response rating, Field Bindweed (field bindweed; 8 g ai/ha, preemergence): 0 | Field Bindweed plant response rating (field bindweed; 62 g ai/ha, Preemergence): 15 | Plant response rating, Field Bindweed (field bindweed; Preemergence, 16 g ai/ha): 0 | Plant response rating, Field Bindweed (field bindweed; Preemergence, 31 g ai/ha): 0 | Plant response rating, Guineagrass (guineagrass; 8 g ai/ha, preemergence): 0 | Guineagrass plant response rating (guineagrass; 62 g ai/ha, Preemergence): 95 | Plant response rating, Guineagrass (guineagrass; Preemergence, 16 g ai/ha): 0 | Plant response rating, Guineagrass (guineagrass; Preemergence, 31 g ai/ha): 90
